Reference: patent US12077503B2, “Substituted cyclic amides and their use as herbicides” (FMC CORPORATION, priority 2015, dated 2024)

Tests used:
Assay type in all cases: in vivo
[1] = system: ivy-leaved morning glory (Ipomoea hederacea); assay: Test G Post-Emergence Protocol; conditions: Ipomoea, post-emergence, 312 h, read-out: Morningglory, Ivy-leaved damage rating; for pest or weed control at 15.625 g/ha: 15.625 g ai/ha, evaluated after 13 days (100=total damage to plant; 0=no damage to plant); for pest or weed control at 62.5 g/ha: 62.5 g ai/ha; for pest or weed control at 62.5 g/ha / pest or weed control at 250 g/ha: evaluated after 13 days, 100=total damage to plant, 0=no damage to plant; for pest or weed control at 250 g/ha: 250 g ai/ha
Summary of the method: (§1)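 Eight days post-sowing, plants received a spray of test compound (acetone/water 50:50, 0.5% Tween 20) at 15.625, 62.5 or 250 g/ha. Glasshouse regime thereafter: 24/16 °C, 14 h light, 65% humidity. Assessment after 13 days on a 0–100 damage scale.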

corn (Zea mays) [2] = assay: Test G Post-Emergence Protocol; conditions: Zea mays, post-emergence, 312 h, read-out: Corn damage rating; for plant injury at 15.625 g/ha: 15.625 g ai/ha, evaluated after 13 days (100=total damage to plant; 0=no damage to plant); for plant injury at 62.5 g/ha: 62.5 g ai/ha; for plant injury at 62.5 g/ha / plant injury at 250 g/ha: evaluated after 13 days, 100=total damage to plant, 0=no damage to plant; for plant injury at 250 g/ha: 250 g ai/ha
Summary of the method: as §1

[3] = system: barnyardgrass (Echinochloa crus-galli); assay: Test G Post-Emergence Protocol; conditions: Echinochloa crus-galli, post-emergence, 312 h, read-out: Barnyardgrass damage rating; for pest or weed control at 15.625 g/ha: 15.625 g ai/ha, evaluated after 13 days (100=total damage to plant; 0=no damage to plant); for pest or weed control at 62.5 g/ha: 62.5 g ai/ha; for pest or weed control at 62.5 g/ha / pest or weed control at 250 g/ha: evaluated after 13 days, 100=total damage to plant, 0=no damage to plant; for pest or weed control at 250 g/ha: 250 g ai/ha
Summary of the method: as §1

[4] = system: giant foxtail (Setaria faberi); assay: Test G Post-Emergence Protocol; conditions: Setaria faberi, post-emergence, 312 h, read-out: Foxtail, Giant damage rating; for pest or weed control at 15.625 g/ha: 15.625 g ai/ha, evaluated after 13 days (100=total damage to plant; 0=no damage to plant); for pest or weed control at 62.5 g/ha: 62.5 g ai/ha; for pest or weed control at 62.5 g/ha / pest or weed control at 250 g/ha: evaluated after 13 days, 100=total damage to plant, 0=no damage to plant; for pest or weed control at 250 g/ha: 250 g ai/ha
Summary of the method: as §1

[5] = system: redroot pigweed (Amaranthus retroflexus); assay: Test G Post-Emergence Protocol; conditions: Amaranthus retroflexus, post-emergence, 312 h, read-out: Pigweed, Redroot damage rating; for pest or weed control at 15.625 g/ha: 15.625 g ai/ha, evaluated after 13 days (100=total damage to plant; 0=no damage to plant); for pest or weed control at 62.5 g/ha: 62.5 g ai/ha; for pest or weed control at 62.5 g/ha / pest or weed control at 250 g/ha: evaluated after 13 days, 100=total damage to plant, 0=no damage to plant; for pest or weed control at 250 g/ha: 250 g ai/ha
Summary of the method: as §1

[6] = system: velvetleaf (Abutilon theophrasti); assay: Test G Post-Emergence Protocol; conditions: Abutilon theophrasti, post-emergence, 312 h, read-out: Velvetleaf damage rating; for pest or weed control at 15.625 g/ha: 15.625 g ai/ha, evaluated after 13 days (100=total damage to plant; 0=no damage to plant); for pest or weed control at 62.5 g/ha: 62.5 g ai/ha; for pest or weed control at 62.5 g/ha / pest or weed control at 250 g/ha: evaluated after 13 days, 100=total damage to plant, 0=no damage to plant; for pest or weed control at 250 g/ha: 250 g ai/ha
Summary of the method: as §1

[7] = system: ivy-leaved morning glory (Ipomoea hederacea); assay: Test G Pre-Emergence Protocol; conditions: Ipomoea, pre-emergence, 312 h, evaluated after 13 days; for pest or weed control at 15.625 g/ha: 15.625 g ai/ha; for pest or weed control at 15.625 g/ha / pest or weed control at 250 g/ha: read-out: Morningglory, Ivy-leaved damage rating (100=total damage to plant; 0=no damage to plant); for pest or weed control at 62.5 g/ha: 62.5 g ai/ha, 100=total damage to plant, 0=no damage to plant, read-out: Morningglory, Ivy-leaved damage rating; for pest or weed control at 250 g/ha: 250 g ai/ha
Summary of the method: (§2)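 Pots of seeds in standard soil were grown for one day in a glasshouse (24/16 °C day/night, 14 h light, 65% humidity), then sprayed with compound in acetone/water 50:50 with 0.5% Tween 20 at 15.625, 62.5 or 250 g/ha. Damage was scored after 13 days on a 0 (none) to 100 (total) scale.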

corn (Zea mays) [8] = assay: Test G Pre-Emergence Protocol; conditions: Zea mays, pre-emergence, 312 h, evaluated after 13 days; for plant injury at 15.625 g/ha: 15.625 g ai/ha; for plant injury at 15.625 g/ha / plant injury at 250 g/ha: read-out: Corn damage rating (100=total damage to plant; 0=no damage to plant); for plant injury at 62.5 g/ha: 62.5 g ai/ha, 100=total damage to plant, 0=no damage to plant, read-out: Corn damage rating; for plant injury at 250 g/ha: 250 g ai/ha
Summary of the method: as §2

[9] = system: barnyardgrass (Echinochloa crus-galli); assay: Test G Pre-Emergence Protocol; conditions: Echinochloa crus-galli, pre-emergence, 312 h, evaluated after 13 days; for pest or weed control at 15.625 g/ha: 15.625 g ai/ha; for pest or weed control at 15.625 g/ha / pest or weed control at 250 g/ha: read-out: Barnyardgrass damage rating (100=total damage to plant; 0=no damage to plant); for pest or weed control at 62.5 g/ha: 62.5 g ai/ha, 100=total damage to plant, 0=no damage to plant, read-out: Barnyardgrass damage rating; for pest or weed control at 250 g/ha: 250 g ai/ha
Summary of the method: as §2

[10] = system: giant foxtail (Setaria faberi); assay: Test G Pre-Emergence Protocol; conditions: Setaria faberi, pre-emergence, 312 h, evaluated after 13 days; for pest or weed control at 15.625 g/ha: 15.625 g ai/ha; for pest or weed control at 15.625 g/ha / pest or weed control at 250 g/ha: read-out: Foxtail, Giant damage rating (100=total damage to plant; 0=no damage to plant); for pest or weed control at 62.5 g/ha: 62.5 g ai/ha, 100=total damage to plant, 0=no damage to plant, read-out: Foxtail, Giant damage rating; for pest or weed control at 250 g/ha: 250 g ai/ha
Summary of the method: as §2

[11] = system: redroot pigweed (Amaranthus retroflexus); assay: Test G Pre-Emergence Protocol; conditions: Amaranthus retroflexus, pre-emergence, 312 h, evaluated after 13 days; for pest or weed control at 15.625 g/ha: 15.625 g ai/ha; for pest or weed control at 15.625 g/ha / pest or weed control at 250 g/ha: read-out: Pigweed, Redroot damage rating (100=total damage to plant; 0=no damage to plant); for pest or weed control at 62.5 g/ha: 62.5 g ai/ha, 100=total damage to plant, 0=no damage to plant, read-out: Pigweed, Redroot damage rating; for pest or weed control at 250 g/ha: 250 g ai/ha
Summary of the method: as §2

[12] = system: velvetleaf (Abutilon theophrasti); assay: Test G Pre-Emergence Protocol; conditions: Abutilon theophrasti, pre-emergence, 312 h, evaluated after 13 days; for pest or weed control at 15.625 g/ha: 15.625 g ai/ha; for pest or weed control at 15.625 g/ha / pest or weed control at 250 g/ha: read-out: Velvetleaf damage rating (100=total damage to plant; 0=no damage to plant); for pest or weed control at 62.5 g/ha: 62.5 g ai/ha, 100=total damage to plant, 0=no damage to plant, read-out: Velvetleaf damage rating; for pest or weed control at 250 g/ha: 250 g ai/ha
Summary of the method: as §2

Compound	pest or weed control at 15.625 g/ha [1] [%]	pest or weed control at 62.5 g/ha [1] [%]	pest or weed control at 250 g/ha [1] [%]	plant injury at 15.625 g/ha (corn (Zea mays) [2]) [%]	plant injury at 62.5 g/ha (corn (Zea mays) [2]) [%]	plant injury at 250 g/ha (corn (Zea mays) [2]) [%]	pest or weed control at 15.625 g/ha [3] [%]	pest or weed control at 62.5 g/ha [3] [%]	pest or weed control at 250 g/ha [3] [%]	pest or weed control at 15.625 g/ha [4] [%]	pest or weed control at 62.5 g/ha [4] [%]	pest or weed control at 250 g/ha [4] [%]	pest or weed control at 15.625 g/ha [5] [%]	pest or weed control at 62.5 g/ha [5] [%]	pest or weed control at 250 g/ha [5] [%]	pest or weed control at 15.625 g/ha [6] [%]	pest or weed control at 62.5 g/ha [6] [%]	pest or weed control at 250 g/ha [6] [%]	pest or weed control at 15.625 g/ha [7] [%]	pest or weed control at 62.5 g/ha [7] [%]	also measured
CCS(=O)(=O)c1ccccc1NC(=O)[C@H]1C(=O)N(C)C[C@@H]1c1ccc(C(F)(F)F)cc1 (racemic) [Compound 1664]	0	20	30	0	40	80	0	60	70	60	80	80	20	80	80	0	10	20	0	0	pest or weed control at 250 g/ha [7]: 0%; plant injury at 15.625 g/ha (corn (Zea mays) [8]): 0%; plant injury at 62.5 g/ha (corn (Zea mays) [8]): 0%; plant injury at 250 g/ha (corn (Zea mays) [8]): 80%; pest or weed control at 15.625 g/ha [9]: 0%; pest or weed control at 62.5 g/ha [9]: 40%; pest or weed control at 250 g/ha [9]: 80%; pest or weed control at 15.625 g/ha [10]: 30%; pest or weed control at 62.5 g/ha [10]: 70%; pest or weed control at 250 g/ha [10]: 90%; pest or weed control at 15.625 g/ha [11]: 0%; pest or weed control at 62.5 g/ha [11]: 20%; pest or weed control at 250 g/ha [11]: 100%; pest or weed control at 15.625 g/ha [12]: 0%; pest or weed control at 62.5 g/ha [12]: 0%; pest or weed control at 250 g/ha [12]: 20%
COC(=O)c1cc([C@H]2CN(C)C(=O)[C@@H]2C(=O)Nc2cccc(F)c2F)ccc1F (racemic) [Compound 1678]	0	0	0	0	0	0	0	10	30	0	10	20	10	10	30	0	0	0	0	0	pest or weed control at 250 g/ha [7]: 0%; plant injury at 15.625 g/ha (corn (Zea mays) [8]): 0%; plant injury at 62.5 g/ha (corn (Zea mays) [8]): 0%; plant injury at 250 g/ha (corn (Zea mays) [8]): 0%; pest or weed control at 15.625 g/ha [9]: 0%; pest or weed control at 62.5 g/ha [9]: 0%; pest or weed control at 250 g/ha [9]: 0%; pest or weed control at 15.625 g/ha [10]: 0%; pest or weed control at 62.5 g/ha [10]: 0%; pest or weed control at 250 g/ha [10]: 0%; pest or weed control at 15.625 g/ha [11]: 0%; pest or weed control at 62.5 g/ha [11]: 0%; pest or weed control at 250 g/ha [11]: 0%; pest or weed control at 15.625 g/ha [12]: 0%; pest or weed control at 62.5 g/ha [12]: 0%; pest or weed control at 250 g/ha [12]: 0%
